Experimental data published in patent US7862815B2, “Methods for inhibiting angiogenesis with inhibitors of proadrenomedullin N-terminal 20 peptide (PAMP)” (The United States of America as represented by the …, priority 2002, dated 2011).

Legend:
[1] = tested on: aortic rings of 13 day-old chicken embryos; assay: Chick embryo aortic arch assay; format: cell-based; conditions: for sprouting of new vessels versus control: 1 nM peptide
Protocol: The chick embryo aortic arch assay is an ex vivo angiogenesis assay that was performed as previously described (Isaacs, et al., J. Biol. Chem., 16; 277(33):29936-44, 2002; Auerbach et al., Clin. Chem. 49, 32-40, 2003). Briefly, aortic rings of approximately 0.8 mm in length were prepared from the five aortic arches of 13 day-old chicken embryos (Truslow Farms) and the soft connective tissue of the adventitia layer was carefully removed with tweezers. Each aortic ring was placed in the center of a well in a 48-well plate and covered with 10 μl matrigel (BD Biosciences). After the matrigel solidified, 300 μl of growth factor-free human endothelial-SFM basal growth medium (Invitrogen) containing the proper concentration of the test substances were added to each well. The plates were kept in a humid incubator at 37° C. in 5% CO2 for 24-36 hours. Microvessels sprouting from each aortic ring were photographed in an inverted microscope and the area covered by the newly formed capillaries was estimated by image analysis.

[2] = tested on: human endothelial cells; assay: Migration assay (ChemoTx chamber); format: cell-based; conditions: for increase in migration: 10^−11 M, four hour incubation, p<0.001; for concentration of peak of migration stimulation: lower and higher concentrations less efficient
Protocol: Cell motility was measured as described (Martinez et al., J. Natl. Cancer Inst., 21; 94(16):1226-37, 2002). Test peptides were placed at various concentrations at the bottom of a ChemoTx chamber (NeuroProbe Inc.). The intermediate membrane was coated with 10 μg/ml fibronectin, and in the upper chamber 5.0×10^5 human endothelial cells were added. After a four hour incubation at 37° C., the membrane was fixed and stained (Protocol Hema3, Biochemical Sciences Inc.). The cells trapped in the porous membrane were photographed through a 25× microscope objective and the number of cells per photographic field was counted.

[3] = tested on: nude mice; assay: Directed in vivo Angiogenesis Assay (DIVAA), Example 1; conditions: for FITC-dextran fluorescence of implants (angiogenesis): mean ± standard deviation of five implants
Protocol: Silicone tubes (0.15 mm outside diameter, New Age Industries, Southampton, Pa.) are cut to 1 cm in length, and one end of each tube is closed with liquid silicone and dried for 24 hours, then autoclaved. A dilution of test substances is prepared in matrigel in sterile cold Eppendorf tubes. Tubes are filled with a Hamilton syringe. Nude mice are anesthetized, and a pocket is made in the dorsal skin of each animal. The tubes are then implanted with the open end first, and the wounds are then sealed.
After nine to eleven days, the tail veins are injected with FITC-dextran to visualize the blood vessels, and the dye is allowed to distribute throughout the vasculature for about 20 minutes. Mice are then euthanized with CO2 and the skin pockets are removed.
Skin is then dissected, keeping the vessels near the mouth of the tube. The matrigel is then displaced from the tube, incubated at 37° C. in the presence of dispase, then vortexed, centrifuged, and matrigel aliquots are transferred into 96-well plates for fluorescent emission. Fluorescence is read in a fluorimeter.
This example provides a description of use of the Directed in vivo Angiogenesis Assay (DIVAA; see Martinez et al., J. Natl. Cancer Inst. 2002; 94:1226-1237) to measure the angiogenic potential of PAMP in comparison to known angiogenesis factors.
Implants were prepared as follows: Silicone tubes (0.15 mm outside diameter, New Age Industries, Southampton, Pa.) were cut to 1 cm in length. One end of each tube was closed with liquid silicone and dried for 24 hours to allow fumes to diffuse out. Tubes were then autoclaved.
A dilution of test substances was prepared in matrigel in sterile cold Eppendorf tubes. A stock of 25× was prepared to avoid diluting the matrigel too much. Tubes were filled with a Hamilton syringe. All the material was kept sterile and cold. Each tube required 18-20 μl. The matrigel was allowed to solidify at 37° C. for at least 30 minutes.
Nude mice were anesthetized with Ketamine and Xylazine (1:4 ratio), 50 μl per mouse, […]. A pocket was made in the dorsal skin of each animal with scissors. The tubes were implanted with the open end first. The wounds were then sealed with surgical clips. Mice were kept warm until they recovered consciousness. Mice were then maintained for nine to eleven days.
Mice were placed under a heating lamp to dilate their tail veins. Tail veins were injected with 25 mg/ml FITC-dextran (Sigma), 100 μl/mouse. After about 20 minutes, the dye had been distributed. Mice were then euthanized with CO2 and the skin pockets were removed and kept in a PBS-wet cloth.
Skin was then dissected out, keeping the vessels near the mouth of the tube. The tube was placed in an Eppendorf tube containing 300 μdispase (Collaborative Biomedical Products). Then the matrigel was displaced from the tube; these were frozen until they were needed later.
Matrigels were thawed and incubated at 37° C. for one hour, then vortexed, centrifuged, and 100 μl was transferred into a 96-well plate for fluorescent emission (black sides). Excitation for FITC was 485 nm. Emission was 535 nm. Fluorescence was read in a fluorometer.

[4] = tested on: athymic nude mice; assay: DIVAA with angioreactors, Example 2 (peptides in matrigel); format: in vivo; conditions: for concentration range at which angiogenesis begins: equimolar comparison, FIG. 4G
Protocol: Analysis and quantitation of angiogenesis was done using DIVAA as previously described (Martinez et al., J. Natl. Cancer Inst., 21; 94(16):1226-37, 2002; Guedez et al., Am. J. Pathol. 162, 1431-1439, 2003). Briefly, 10 mm long surgical-grade silicone tubes with only one end open (angioreactors) were filled with 20 μl of matrigel alone or mixed with AM, bFGF, VEGF, PAMP, and/or PAMP(12-20) at the indicated concentrations. Human lung cancer cell lines (see below) were also premixed with matrigel alone or in combination with PAMP(12-20) at 10,000 cells per angioreactor. After the matrigel solidified, the angioreactors were implanted into the dorsal flanks of anesthetized athymic nude mice (NCI colony). After eleven days, the mice were injected intravenously with 25 mg/ml FITC-dextran (100 μl/mouse, Sigma) 20 minutes before removing the angioreactors. Photographs of the implants were taken for visual examination of angiogenic response. Quantitation of neovascularization in the angioreactors was determined as the amount of fluorescence trapped in the implants and was measured in a HP Spectrophotometer (Perkin Elmer).
To further characterize this observation, an […] assay was employed that allows for more precise quantitation of angiogenic properties: the directed […] angiogenesis assay or DIVAA (Martinez et al., J. Natl. Cancer Inst., 21; 94(16): 1226-37, 2002; Guédez et al., Am. J. Pathol. 162, 1431-1439, 2003). The assay involves implanting small silicone capsules carrying the test substances under the skin of nude mice. After eleven days, the mice are injected with a specific amount of FITC-dextran, and the volume of blood circulating through the implant is quantified by measuring the fluorescence in the capsule. In addition, the new blood vessels growing into the silicone tube can be seen directly by transparency (FIG. 4A-F). […] The extent of the angiogenic response can be seen clearly when this response is compared with the negative control (FIG. 4A). The angiogenic response elicited by PAMP was dose-dependent (FIG. 4C-G). When compared to AM and VEGF responses at equimolar concentrations, a clear difference was observed.

Substance: Adrenomedullin [AM]
- sprouting of new vessels versus control [1]: do not promote any significant proliferation over the control
- effect on cell migration ([2]; on the concentration range tested): did not modify cell migration significantly
- FITC-dextran fluorescence of implants (angiogenesis) ([3]; 10 pM peptide in matrigel): 1033.2 ± 343 arbitrary fluorescence units
- FITC-dextran fluorescence of implants (angiogenesis) ([3]; 1 nM peptide in matrigel): 9590 ± 3164 arbitrary fluorescence units
- FITC-dextran fluorescence of implants (angiogenesis) ([3]; 100 nM peptide in matrigel): 13490 ± 2731 arbitrary fluorescence units
- FITC-dextran fluorescence of implants (angiogenesis) ([3]; 1 fM peptide in matrigel): 496 ± 275 arbitrary fluorescence units
- FITC-dextran fluorescence of implants (angiogenesis) ([3]; 100 fM peptide in matrigel): 787 ± 130 arbitrary fluorescence units
- concentration range at which angiogenesis begins [4]: nanomolar concentrations

Substance: proadrenomedullin N-terminal 20 peptide (ARLDVASEFRKKWNKWALSR; listed as Homo sapiens) [PAMP, 20 amino-acid molecule originating from the post-translational processing of pre-proadrenomedullin; synthetic human, purchased from Bachem]
- sprouting of new vessels versus control [1]: larger than the control
- concentrations inducing increase of sprouting blood vessels over untreated controls ([1]; chick embryo aortic rings in matrigel, 24-36 hours): ≥ 1 nM
- increase in migration [2]: four-fold
- concentration of peak of migration stimulation [2]: 10^−11 M
- FITC-dextran fluorescence of implants (angiogenesis) ([3]; 10 pM peptide in matrigel): 7611.2 ± 3747 arbitrary fluorescence units
- FITC-dextran fluorescence of implants (angiogenesis) ([3]; 1 nM peptide in matrigel): 10122.2 ± 3970 arbitrary fluorescence units
- FITC-dextran fluorescence of implants (angiogenesis) ([3]; 100 nM peptide in matrigel): 22283.6 ± 6746 arbitrary fluorescence units
- FITC-dextran fluorescence of implants (angiogenesis) ([3]; 1 fM peptide in matrigel): 6837.6 ± 1982 arbitrary fluorescence units
- FITC-dextran fluorescence of implants (angiogenesis) ([3]; 100 fM peptide in matrigel): 7044 ± 1727 arbitrary fluorescence units
- angiogenic potency compared with VEGF or AM ([3]; Table 2, FIG. 1, FIG. 2): significantly more potent
- angiogenic potency relative to VEGF and bFGF ([3]; on a molar basis, based on embryonic chick aortic ring assay and DIVAA): roughly one million
- dose dependence of angiogenic response ([4]; FIG. 4C-G): dose-dependent
- concentration range at which angiogenesis begins [4]: femtomolar range
- concentrations eliciting an angiogenic response ([4]; implants 11 days under the skin of nude mice): ≥ 1 femtomols/L

Substance: vascular endothelial growth factor [VEGF]
- sprouting of new vessels versus control [1]: do not promote any significant proliferation over the control
- increase in migration [2]: four-fold
- cell migration at other concentrations ([2]; concentrations lower than 10^−11 M): also induced a significant increase in cell migration
- concentration of peak of migration stimulation [2]: 10^−11 M
- FITC-dextran fluorescence of implants (angiogenesis) ([3]; 10 pM peptide in matrigel): 863.4 ± 437 arbitrary fluorescence units
- FITC-dextran fluorescence of implants (angiogenesis) ([3]; 1 nM peptide in matrigel): 8435 ± 3931 arbitrary fluorescence units
- FITC-dextran fluorescence of implants (angiogenesis) ([3]; 100 nM peptide in matrigel): 11206 ± 3735 arbitrary fluorescence units
- FITC-dextran fluorescence of implants (angiogenesis) ([3]; 1 fM peptide in matrigel): 1563.2 ± 1643 arbitrary fluorescence units
- FITC-dextran fluorescence of implants (angiogenesis) ([3]; 100 fM peptide in matrigel): 571 ± 785 arbitrary fluorescence units
- concentration range at which angiogenesis begins [4]: nanomolar concentrations
